From patent US20260132132A1, “3A,4,5,6-TETRAHYDRO-1 H-PYRAZOLO[3,4-C]PYRIDIN-7(7AH)-ONE DERIVATIVES AS FACTOR XIIA INHIBITORS” (KALVISTA PHARMACEUTICALS LIMITED, priority 2022, published 2026)

What was measured:
[1] = target: T1, Human Factor XIIa (hFXIIa) (Homo sapiens, UniProt P00748); test: Determination of Human Factor XIIa (hFXIIa) inhibition, fluorogenic substrate IC50 assay; assay type: biochemical; details: fluorogenic substrate H-DPro-Phe-Arg-AFC at Km, 25° C., read-out: Human FXIIa IC50
T1 construct: purchased Enzyme Research Laboratories
T1 sequence (P00748 373-615 limits assumed): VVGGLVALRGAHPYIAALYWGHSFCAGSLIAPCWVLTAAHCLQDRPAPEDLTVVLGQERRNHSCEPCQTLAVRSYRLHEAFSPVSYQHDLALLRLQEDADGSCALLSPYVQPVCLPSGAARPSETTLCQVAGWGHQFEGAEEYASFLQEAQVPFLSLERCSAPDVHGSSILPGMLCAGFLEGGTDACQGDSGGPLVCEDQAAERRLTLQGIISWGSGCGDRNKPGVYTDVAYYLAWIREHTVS
T1 sequence (P00748 20-372 partner limits assumed): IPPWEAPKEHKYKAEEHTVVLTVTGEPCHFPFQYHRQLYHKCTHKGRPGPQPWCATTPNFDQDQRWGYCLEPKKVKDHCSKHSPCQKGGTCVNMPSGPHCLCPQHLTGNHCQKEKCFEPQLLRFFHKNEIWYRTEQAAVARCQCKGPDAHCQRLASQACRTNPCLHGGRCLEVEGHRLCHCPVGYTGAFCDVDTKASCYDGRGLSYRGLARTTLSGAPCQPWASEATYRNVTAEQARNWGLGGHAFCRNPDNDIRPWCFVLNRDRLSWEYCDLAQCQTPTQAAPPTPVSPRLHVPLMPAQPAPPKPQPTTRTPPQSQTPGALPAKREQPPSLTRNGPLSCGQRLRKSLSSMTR
Procedure: Determination of Human Factor XIIa (hFXIIa) inhibition
The Km for the cleavage of the substrate by hFXIIa was determined by standard transformation of the Michaelis-Menten equation, with subsequent inhibition assays performed at substrate Km concentration.

FXa = FXa (Homo sapiens, UniProt P00742); test: Related protease inhibition: FXa, fluorogenic substrate; assay type: biochemical; details: fluorogenic substrate at Km, 25° C.; H1-H3 = % activity at 40 μM
Procedure: Human serine protease enzyme Plasma Kallikrein, KLK1, FXa, Plasmin, Thrombin and Trypsin were assayed for enzymatic activity using an appropriate fluorogenic substrate at Km concentration, FXIa at fixed substrate concentration of 100 μM and various concentrations of the test compound.

Chain of FXa (P00742 235-488 limits assumed): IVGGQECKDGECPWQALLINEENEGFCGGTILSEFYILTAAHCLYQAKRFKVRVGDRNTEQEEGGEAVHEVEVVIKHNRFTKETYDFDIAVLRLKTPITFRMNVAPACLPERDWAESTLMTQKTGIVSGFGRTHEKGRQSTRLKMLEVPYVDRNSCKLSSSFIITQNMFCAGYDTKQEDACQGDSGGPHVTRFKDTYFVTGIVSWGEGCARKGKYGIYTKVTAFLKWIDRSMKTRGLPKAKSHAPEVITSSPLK
Chain of FXa (P00742 41-179 partner limits assumed): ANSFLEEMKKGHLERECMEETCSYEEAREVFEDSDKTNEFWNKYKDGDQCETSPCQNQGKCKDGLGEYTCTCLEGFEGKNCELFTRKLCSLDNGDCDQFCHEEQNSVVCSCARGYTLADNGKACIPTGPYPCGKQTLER

Row | SMILES | IC50 [1] [µM] | IC50 (FXa) [µM]
1 | CN1CCc2ccc(N3CCc4c(C(=O)NC5COCC5O)nn(-c5cccc(Cl)c5)c4C3=O)cc2C1=O (centres unmarked) [Example 1179, 1-(3-chlorophenyl)-N-(4-hydroxytetrahydrofuran-3-yl)-6-(2-methyl-1-oxo-1,2,3,4-tetrahydroisoquinolin-7-yl)-7-oxo-4,5,6,7-tetrahydro-1H-pyrazolo[3,4-c]pyridine-3-carboxamide] | 0.3 to 1 | > 40
2 | CCNC(=O)c1nn(-c2cccc(Cl)c2)c2c1CCN(c1cccc(N3CCCS3(=O)=O)c1)C2=O [Example 1366, 1-(3-chlorophenyl)-6-(3-(1,1-dioxidoisothiazolidin-2-yl)phenyl)-N-ethyl-7-oxo-4,5,6,7-tetrahydro-1H-pyrazolo[3,4-c]pyridine-3-carboxamide] | 3 to 10 | 10 to 40
3 | O=C(NCC1CC1)c1nn(-c2cccc(Cl)c2)c2c1CCN(c1ccc3c(c1)CN(CCF)CC3)C2=O [Example 1175, 1-(3-chlorophenyl)-N-(cyclopropylmethyl)-6-(2-(2-fluoroethyl)-1,2,3,4-tetrahydroisoquinolin-7-yl)-7-oxo-4,5,6,7-tetrahydro-1H-pyrazolo[3,4-c]pyridine-3-carboxamide] | 0.1 to 0.3 | 
4 | Cc1cc(CNC(=O)c2nn(-c3cccc(Cl)c3)c3c2CCN(c2ccc4c(c2)C(=O)N(CCO)CC4)C3=O)n[nH]1 [Example 1255, 1-(3-chlorophenyl)-6-(2-(2-hydroxyethyl)-1-oxo-1,2,3,4-tetrahydroisoquinolin-7-yl)-N-((5-methyl-1H-pyrazol-3-yl)methyl)-7-oxo-4,5,6,7-tetrahydro-1H-pyrazolo[3,4-c]pyridine-3-carboxamide] | 0.1 to 0.3 | 
5 | O=C(NCC1CC1)c1nn(-c2cccc(Cl)c2)c2c1CCN(c1ccc3c(c1)CN(CCO)CC3(F)F)C2=O [Example 1300, 1-(3-chlorophenyl)-N-(cyclopropylmethyl)-6-(4,4-difluoro-2-(2-hydroxyethyl)-1,2,3,4-tetrahydroisoquinolin-7-yl)-7-oxo-4,5,6,7-tetrahydro-1H-pyrazolo[3,4-c]pyridine-3-carboxamide] | 3 to 10 | 
6 | CN(C)C(=O)c1cnnc(N2CCc3c(C(=O)NCC4CC4)nn(-c4cccc(Cl)c4)c3C2=O)c1 [Example 1298, 1-(3-chlorophenyl)-N-(cyclopropylmethyl)-6-(5-(dimethylcarbamoyl)pyridazin-3-yl)-7-oxo-4,5,6,7-tetrahydro-1H-pyrazolo[3,4-c]pyridine-3-carboxamide] | 3 to 10 | 
7 | Cn1nccc1CNC(=O)c1nn(-c2cccc(Cl)c2)c2c1CCN(c1ccc3c(c1)CN(CCO)CC3)C2=O [Example 1088, 1-(3-chlorophenyl)-6-(2-(2-hydroxyethyl)-1,2,3,4-tetrahydroisoquinolin-7-yl)-N-((1-methyl-1H-pyrazol-5-yl)methyl)-7-oxo-4,5,6,7-tetrahydro-1H-pyrazolo[3,4-c]pyridine-3-carboxamide] | 0.1 to 0.3 | 
8 | CN(C)C(=O)c1cc(N2CCc3c(C(=O)NCC4CC4)nn(-c4cccc(Cl)c4)c3C2=O)ccc1F [Example 1281, 1-(3-chlorophenyl)-N-(cyclopropylmethyl)-6-(3-(dimethylcarbamoyl)-4-fluorophenyl)-7-oxo-4,5,6,7-tetrahydro-1H-pyrazolo[3,4-c]pyridine-3-carboxamide] | 3 to 10 | 
9 | O=C(NCc1ccccc1)c1nn(-c2cccc(Cl)c2)c2c1CCN(c1ccc3c(c1)CN(CC1CCCC1)CC3)C2=O [Example 1020, N-benzyl-1-(3-chlorophenyl)-6-(2-(cyclopentylmethyl)-1,2,3,4-tetrahydroisoquinolin-7-yl)-7-oxo-4,5,6,7-tetrahydro-1H-pyrazolo[3,4-c]pyridine-3-carboxamide] | 0.3 to 1 | 

Other lines, results leading:

Row | IC50 [1] [µM] | IC50 (FXa) [µM] | SMILES
10 | 1 to 3 | 10 to 40 | CN1CCc2ccc(N3CCc4c(COC5(C)COC5)nn(-c5cccc(Cl)c5)c4C3=O)cc2C1=O [Example 1354, 7-(1-(3-chlorophenyl)-3-(((3-methyloxetan-3-yl)oxy)methyl)-7-oxo-1,4,5,7-tetrahydro-6H-pyrazolo[3,4-c]pyridin-6-yl)-2-methyl-3,4-dihydroisoquinolin-1 (2H)-one]
11 | 1 to 3 | > 40 | CN1CCc2ccc(N3CCc4c(C(=O)N5CCC5)nn(-c5cccc(Cl)c5)c4C3=O)cc2C1=O [Example 1335, 7-(3-(azetidine-1-carbonyl)-1-(3-chlorophenyl)-7-oxo-1,4,5,7-tetrahydro-6H-pyrazolo[3,4-c]pyridin-6-yl)-2-methyl-3,4-dihydroisoquinolin-1(2H)-one]
12 | 10 to 40 |  | CCN(CC)C(=O)c1cccc(N2CCc3c(C(=O)NCC4CC4)nn(-c4cccc(Cl)c4)c3C2=O)c1 [Example 1286, 1-(3-chlorophenyl)-N-(cyclopropylmethyl)-6-(3-(diethylcarbamoyl)phenyl)-7-oxo-4,5,6,7-tetrahydro-1H-pyrazolo[3,4-c]pyridine-3-carboxamide]
13 | 0.3 to 1 |  | CN1CCc2ccc(N3CCc4c(C(=O)NCC(O)C5CC5)nn(-c5cccc(Cl)c5)c4C3=O)cc2C1 (centres unmarked) [Example 1058, 1-(3-chlorophenyl)-N-(2-cyclopropyl-2-hydroxyethyl)-6-(2-methyl-1,2,3,4-tetrahydroisoquinolin-7-yl)-7-oxo-4,5,6,7-tetrahydro-1H-pyrazolo[3,4-c]pyridine-3-carboxamide]
14 | 1 to 3 |  | CCOC(=O)c1nn(-c2cccc(Cl)c2)c2c1CCN(c1ccc(OC)c(C(=O)N(C)C)c1)C2=O [Example 1324, ethyl 1-(3-chlorophenyl)-6-(3-(dimethylcarbamoyl)-4-methoxyphenyl)-7-oxo-4,5,6,7-tetrahydro-1H-pyrazolo[3,4-c]pyridine-3-carboxylate]
15 | 0.3 to 1 |  | C[C@@H](NC(=O)c1nn(-c2cccc(Cl)c2)c2c1CCN(c1ccc3c(c1)C(=O)N(C)CC3)C2=O)c1cccnc1 [Example 1214, (R)-1-(3-chlorophenyl)-6-(2-methyl-1-oxo-1,2,3,4-tetrahydroisoquinolin-7-yl)-7-oxo-N-(1-(pyridin-3-yl)ethyl)-4,5,6,7-tetrahydro-1H-pyrazolo[3,4-c]pyridine-3-carboxamide]
16 | 0.1 to 0.3 |  | COc1ccc(CNC(=O)c2nn(-c3cccc(Cl)c3)c3c2CCN(c2cccc(CN4CCCCC4)c2)C3=O)cn1 [Example 1173, 1-(3-chlorophenyl)-N-((6-methoxypyridin-3-yl)methyl)-7-oxo-6-(3-(piperidin-1-ylmethyl)phenyl)-4,5,6,7-tetrahydro-1H-pyrazolo[3,4-c]pyridine-3-carboxamide]
17 | 10 to 40 |  | CN(C)C(=O)c1cncc(N2CCc3c(C(=O)NCC4CC4)nn(-c4cccc(Cl)c4)c3C2=O)c1 [Example 1279, 1-(3-chlorophenyl)-N-(cyclopropylmethyl)-6-(5-(dimethylcarbamoyl)pyridin-3-yl)-7-oxo-4,5,6,7-tetrahydro-1H-pyrazolo[3,4-c]pyridine-3-carboxamide]
18 | 10 to 40 |  | CCNC(=O)c1nn(-c2ccc(C)cc2F)c2c1CCN(c1ccc3c(c1)C(=O)N(C)CC3)C2=O [Example 2034, N-ethyl-1-(2-fluoro-4-methylphenyl)-6-(2-methyl-1-oxo-1,2,3,4-tetrahydroisoquinolin-7-yl)-7-oxo-4,5,6,7-tetrahydro-1H-pyrazolo[3,4-c]pyridine-3-carboxamide]
19 | 0.3 to 1 |  | CN1CCc2ccc(N3CCc4c(C(=O)NC5COC5)nn(-c5cccc(Cl)c5)c4C3=O)cc2C1 [Example 1041, 1-(3-chlorophenyl)-6-(2-methyl-1,2,3,4-tetrahydroisoquinolin-7-yl)-N-(oxetan-3-yl)-7-oxo-4,5,6,7-tetrahydro-1H-pyrazolo[3,4-c]pyridine-3-carboxamide]
